Source: ChEMBL document CHEMBL1126318, “Discovery of a potent substance P antagonist: recognition of the key molecular determinant” (J Med Chem, 1992)

Target: Substance-P receptor (Homo sapiens, UniProt P25103)
Test: In vitro binding affinity for the Tachykinin receptor 1 in human IM-9 cell using [125I]BH-SP of the compound.
Assay type: cell-based

Substance-P receptor, sequence (P25103 whole entry): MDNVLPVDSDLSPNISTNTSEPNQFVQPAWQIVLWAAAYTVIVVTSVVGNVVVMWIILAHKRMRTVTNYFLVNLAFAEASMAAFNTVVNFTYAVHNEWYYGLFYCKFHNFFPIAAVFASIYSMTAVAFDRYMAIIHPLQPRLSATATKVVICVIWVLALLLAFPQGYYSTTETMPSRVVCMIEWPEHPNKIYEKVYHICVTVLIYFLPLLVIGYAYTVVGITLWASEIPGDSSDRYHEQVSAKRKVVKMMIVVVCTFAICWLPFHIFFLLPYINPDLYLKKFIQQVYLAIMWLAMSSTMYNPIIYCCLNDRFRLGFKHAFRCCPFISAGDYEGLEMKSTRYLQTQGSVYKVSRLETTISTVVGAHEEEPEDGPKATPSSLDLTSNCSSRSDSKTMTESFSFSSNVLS

`COc1ccccc1CN[C@H]1CCCN[C@H]1C(c1ccccc1)c1ccccc1` (racemic) was tested, and the Ki was 0.049 µM.
